# Reference: ChEMBL document CHEMBL5725543, “Aniline derivative, pharmaceutical composition containing same, and use thereof” (2017)
# Molecular target: Sphingosine 1-phosphate receptor 1 (Homo sapiens, UniProt P21453)
# Experiment: BCA Protein Assay: Inhibitory activity evaluation was performed by multi-screen (registered trademark) HTS 96-well plate (Millipore) using the cell membrane fraction stably expressing S1P1 obtained by the above operation. 25 μL of assay solution (50 mM Tris, 100 mM sodium chloride, 5 mM magnesium chloride, 1 mM EDTA, 1 mM DTT (dithiothreitol), 10 μM GDP (guanosine diphosphate) and 0.5% BSA (bovine serum albumin), pH 7.4), 25 μL of test compounds solution diluted by assay solution and 25 μL of the membrane fraction (0.2 μg protein/μL) were added to each well, and the mixture was gently shaken at room temperature: for 30 minutes. Then, 25 μL of 35S-GTP, and 25 μL of 50 nM S1P1 receptor selective agonist (1-[4-(4-phenyl-5-trifluoromethylthiophen-2-ylmethoxy)benzyl]azetidine-3-carboxylic acid, ¿J. Med. Chem.¿, 2004, vol. 47, pp. 6662-6665, compound 18) were added to each well, respectively, and it was reacted at room temperature for 60 minutes. After the reaction, a reaction solution of each well was suction-filtered. After suction filtration, ice-colded wash solution (50 mM Tris, 100 mM sodium chloride, […] and 1 mM EDTA, pH 7.4) was added to each well, and moreover filters were washed by suction filtration. This wash procedure was performed three times. A bottom of the plate containing the filters was dried at 60° C. […]
# Sequence of Sphingosine 1-phosphate receptor 1 (P21453 whole entry): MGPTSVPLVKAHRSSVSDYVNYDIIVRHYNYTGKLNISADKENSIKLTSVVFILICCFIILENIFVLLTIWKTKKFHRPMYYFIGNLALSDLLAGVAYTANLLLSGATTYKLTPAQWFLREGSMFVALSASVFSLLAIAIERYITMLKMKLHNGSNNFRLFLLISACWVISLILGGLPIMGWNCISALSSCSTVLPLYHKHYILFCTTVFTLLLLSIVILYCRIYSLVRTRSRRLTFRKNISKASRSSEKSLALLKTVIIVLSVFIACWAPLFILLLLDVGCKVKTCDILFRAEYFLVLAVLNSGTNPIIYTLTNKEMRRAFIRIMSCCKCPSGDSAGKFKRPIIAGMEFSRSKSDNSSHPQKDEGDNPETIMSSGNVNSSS
smiles,measurement,value
CCN(c1ccc(Cl)c(C)c1)C(CO)c1cccc(CN2CC(C(=O)O)C2)c1 (stereo unspecified),IC50,11.2 nM
